# Source: patent US7595404B2, “Thiazolyl-substituted carbocyclic 1,3-diones as pesticidal agents” (Bayer CropScience AG, priority 2001, dated 2009)
# Tests used:
# Setaria [1] = assay: Post-emergence test, Setaria; assay type: in vivo; conditions: post-emergence/greenhouse; 250 g a.i./ha; after three weeks
# Description: (§1) • Solvent: 5 parts by weight of acetone • Emulsifier: 1 part by weight of alkylaryl polyglycol ether
# (§2) To produce a suitable preparation of active compound, 1 part by weight of active compound is mixed with the stated amount of solvent, the stated amount of emulsifier is added and the concentrate is diluted with water to the desired concentration.
# (§3) Test plants of a height of 5-15 cm are sprayed with the preparation of active compound such that the particular amounts of active compound desired are applied per unit area. The concentration of the spray liquor is chosen such that the particular amounts of active compound desired are applied in 1000 l of water/ha.
# (§4) After three weeks, the degree of damage to the plants is rated in % damage in comparison to the development of the untreated control.
# (§5) The figures denote: • 0% =no effect (like untreated control) • 100% =total destruction
# Alopecurus [2] = assay: Post-emergence test, Alopecurus; assay type: in vivo; conditions: post-emergence/greenhouse; 250 g a.i./ha; after three weeks
# Description: as §1, §2, §3, §4, §5
# Sugar-beet = assay: Post-emergence test, Sugar beet; assay type: in vivo; conditions: post-emergence/greenhouse; 250 g a.i./ha; after three weeks; crop
# Description: as §1, §2, §3, §4, §5
# Lolium = assay: Pre-emergence test, Lolium; assay type: in vivo; conditions: pre-emergence/greenhouse; 125 g a.i./ha; after three weeks
# Description: as §1, §2
# (§6) Seeds of the test plants are sown in normal soil. After about 24 hours, the soil is sprayed with the preparation of active compound such that the particular amounts of active compound desired are applied per unit area. The concentration of the spray liquor is chosen such that the particular amounts of active compound desired are applied in 1000 l of water/ha.
# as §4, §5
# [3] = test system: caterpillars of the armyworm (Spodoptera frugiperda); assay: Spodoptera frugiperda test; assay type: in vivo; conditions: 500 ppm, dipped cabbage leaves
# Description: (§7) Spodoptera Frugiperda Test • Solvent: 7 parts by weight of dimethylformamide • Emulsifier: 2 parts by weight of alkylaryl polyglycol ether To produce a suitable preparation of active compound, 1 part by weight of active compound is mixed with the stated amounts of solvent and emulsifier, and the concentrate is diluted with emulsifier-containing water to the desired concentration. Cabbage leaves (Brassica oleracea) are treated by being dipped into the preparation of active compound of the desired concentration and are populated with caterpillars of the armyworm (Spodoptera frugiperda) while the leaves are still moist. After the desired period of time, the kill in % is determined. 100% means that all caterpillar larvae have been killed; 0% means that none of the caterpillar have been killed.
# Avena fatua [4] = assay: Post-emergence test, Avena fatua; assay type: in vivo; conditions: post-emergence/greenhouse; 250 g a.i./ha; after three weeks
# Description: as §1, §2, §3, §4, §5
# Bromus = assay: Pre-emergence test, Bromus; assay type: in vivo; conditions: pre-emergence/greenhouse; 125 g a.i./ha; after three weeks
# Description: as §1, §2, §6, §4, §5
# Soya bean = assay: Pre-emergence test, Soya bean; assay type: in vivo; conditions: pre-emergence/greenhouse; 125 g a.i./ha; after three weeks; crop
# Description: as §1, §2, §6, §4, §5
# Setaria [5] = assay: Pre-emergence test, Setaria; assay type: in vivo; conditions: pre-emergence/greenhouse; 125 g a.i./ha; after three weeks
# Description: as §1, §2, §6, §4, §5
# Echinochloa = assay: Post-emergence test, Echinochloa; assay type: in vivo; conditions: post-emergence/greenhouse; 250 g a.i./ha; after three weeks
# Description: as §1, §2, §3, §4, §5
# [6] = test system: greenhouse red spider mite (Tetranychus urticae); assay: Tetranychus test (OP-resistant/dip treatment); assay type: in vivo; conditions: 100 ppm, dipped bean plants
# Description: Tetranychus test (OP-Resistant/Dip Treatment)
# • Solvent: 30 parts by weight of dimethylformamide • Emulsifier: 1 part by weight of alkylaryl polyglycol ether
# To produce a suitable preparation of active compound, 1 part by weight of active compound is mixed with the stated amounts of solvent and emulsifier, and the concentrate is diluted with emulsifier-containing water to the desired concentration.
# Bean plants (Phaseolus vulgaris) which are heavily infested by all stages of the greenhouse red spider mite (Tetranychus urticae) are dipped into a preparation of active compound of the desired concentration.
# After the desired period of time, the effect in % is determined. 100% means that all spider mites have been killed; 0% means that none of the spider mites have been killed.
# Abutilon = assay: Pre-emergence test, Abutilon; assay type: in vivo; conditions: pre-emergence/greenhouse; 125 g a.i./ha; after three weeks
# Description: as §1, §2, §6, §4, §5
# [7] = test system: larvae of the mustard beetle (Phaedon cochleariae); assay: Phaedon larvae test; assay type: in vivo; conditions: 500 ppm, dipped cabbage leaves
# Description: as §7, with “Phaedon Larvae Test” for “Spodoptera Frugiperda Test”, “with larvae” for “with caterpillars”, “the mustard beetle (Phaedon cochleariae)” for “the armyworm (Spodoptera frugiperda)”, “all beetle” for “all caterpillar”, “the beetle larvae” for “the caterpillar”
# Sinapis = assay: Post-emergence test, Sinapis; assay type: in vivo; conditions: post-emergence/greenhouse; 250 g a.i./ha; after three weeks
# Description: as §1, §2, §3, §4, §5
# Pyricularia oryzae = assay type: cell-based; conditions: 50% inhibition of fungal growth, tested at 0.1, 1, 10 and 100 ppm, 22° C., 3-5 days, photometric 620 nm
# Septoria tritici = assay: In vitro test for the ED50 determination in microorganisms, Septoria tritici; assay type: cell-based; conditions: 50% inhibition of fungal growth, tested at 0.1, 1, 10 and 100 ppm, 22° C., 3-5 days, photometric 620 nm
# Ustilago avenae = assay: In vitro test for the ED50 determination in microorganisms, Ustilago avenae; assay type: cell-based; conditions: 50% inhibition of fungal growth, tested at 0.1, 1, 10 and 100 ppm, 22° C., 3-5 days, photometric 620 nm
# Stellaria = assay: Pre-emergence test, Stellaria; assay type: in vivo; conditions: pre-emergence/greenhouse; 125 g a.i./ha; after three weeks
# Description: as §1, §2, §6, §4, §5
# Meloidogyne incognita = assay: Meloidogyne test; assay type: in vivo; conditions: 20 ppm active compound, nematicidal action by gall formation on lettuce roots
# Description: Meloidogyne Test • Solvent: 30 parts by weight of dimethylformamide • Emulsifier: 1 part by weight of alkylaryl polyglycol ether To produce a suitable preparation of active compound, 1 part by weight of active compound is mixed with the stated amounts of solvent and emulsifier, and the concentrate is diluted with water to the desired concentration. Containers are filled with sand, solution of active compound, Meloidogyne incognita egg/larvae suspension and lettuce seeds. The lettuce seeds germinate the plants develop. On the roots, galls are formed. After the desired period of time, the nematicidal action is determined in % by the gall formation. 100% means that no galls have been found; 0% means that the number of galls on the treated plants corresponds to that of the untreated control.
# Alopecurus [8] = assay: Pre-emergence test, Alopecurus; assay type: in vivo; conditions: pre-emergence/greenhouse; 125 g a.i./ha; after three weeks
# Description: as §1, §2, §6, §4, §5
# Wheat = assay: Pre-emergence test, Wheat; assay type: in vivo; conditions: pre-emergence/greenhouse; 125 g a.i./ha; after three weeks; crop
# Description: as §1, §2, §6, §4, §5
# Galium = assay: Post-emergence test, Galium; assay type: in vivo; conditions: post-emergence/greenhouse; 250 g a.i./ha; after three weeks
# Description: as §1, §2, §3, §4, §5
# Matricaria = assay: Pre-emergence test, Matricaria; assay type: in vivo; conditions: pre-emergence/greenhouse; 125 g a.i./ha; after three weeks
# Description: as §1, §2, §6, §4, §5
# Digitaria = assay: Pre-emergence test, Digitaria; assay type: in vivo; conditions: pre-emergence/greenhouse; 125 g a.i./ha; after three weeks
# Description: as §1, §2, §6, §4, §5
# Avena fatua [9] = assay: Pre-emergence test, Avena fatua; assay type: in vivo; conditions: pre-emergence/greenhouse; 125 g a.i./ha; after three weeks
# Description: as §1, §2, §6, §4, §5
# Sugar beet = assay: Pre-emergence test, Sugar beet; assay type: in vivo; conditions: pre-emergence/greenhouse; 125 g a.i./ha; after three weeks; crop
# Description: as §1, §2, §6, §4, §5
# Polygonum = assay: Pre-emergence test, Polygonum; assay type: in vivo; conditions: pre-emergence/greenhouse; 125 g a.i./ha; after three weeks
# Description: as §1, §2, §6, §4, §5
# Oilseed rape = assay: Pre-emergence test, Oilseed rape; assay type: in vivo; conditions: pre-emergence/greenhouse; 125 g a.i./ha; after three weeks; crop
# Description: as §1, §2, §6, §4, §5
# [10] = test system: green peach aphid (Myzus persicae); assay: Myzus test (systemic action); assay type: in vivo; conditions: 20 ppm, watering of infested Savoy cabbage (systemic)
# Description: Myzus Test (Systemic Action) • Solvent: 7 parts by weight of dimethylformamide • Emulsifier: 2 parts by weight of alkylaryl polyglycol ether To produce a suitable preparation of active compound, 1 part by weight of active compound is mixed with the stated amounts of solvent and emulsifier, and the concentrate is diluted with emulsifier-containing water to the desired concentration. Savoy cabbage (Brassica oleracea) which is heavily infested by the green peach aphid (Myzus persicae) is watered with in each case 10 ml of preparation of active compound of the desired concentration such that the preparation of active compound penetrates into the soil without wetting the seedling. The active compound is taken up by the roots and transferred into the seedling. After the desired period of time, the kill in % is determined. 100% means that all aphids have been killed; 0% means that none of the aphids have been killed.
SMILES,"% damage, Setaria (Setaria [1]) [%]","% damage, Alopecurus (Alopecurus [2]) [%]","% damage, Lolium (Lolium) [%]",Kill rate in % after 7 d [3] [%],"% damage, Avena fatua (Avena fatua [4]) [%]","% damage, Soya bean (Soya bean) [%]","% damage, Setaria (Setaria [5]) [%]",Kill rate in % after 7 d [6] [%],"% damage, Sinapis (Sinapis) [%]","% damage, Stellaria (Stellaria) [%]","% damage, Alopecurus (Alopecurus [8]) [%]",also measured
Cc1sc(-c2ccc(Cl)cc2)nc1C1=C(O)CC(C)(C)CC1=O [Example I-2-a-1],100,90,100,100,95,0,100,98,,,,"% damage, Sugar-beet (Sugar-beet): 0%; % damage, Bromus (Bromus): 95%; % damage, Echinochloa (Echinochloa): 100%; % damage, Abutilon (Abutilon): 70%"
CCOC(=O)OC1=C(c2nc(-c3ccc(Cl)cc3)sc2C)C(=O)CC1(C)C [Example I-1-c-1],100,,,100,90,,,95,70,,,"% damage, Sugar-beet (Sugar-beet): 0%; Kill rate in % after 7 d [7]: 100%; % damage, Echinochloa (Echinochloa): 100%"
Cc1sc(-c2ccc(Cl)cc2)nc1C1=C(O)CCCC1=O [Example I-2-a-2],,,,,,,,99,,,,ED50 value (Pyricularia oryzae): 1.96 ppm; ED50 value (Septoria tritici): <0.1 ppm; ED50 value (Ustilago avenae): <0.1 ppm
CCOC(=O)OC1=C(c2nc(-c3ccc(Cl)cc3)sc2CC)C(=O)CC12CCCCC2 [Example I-1-c-3],100,100,100,,100,0,100,98,80,70,95,"Kill rate in % after 14 d (Meloidogyne incognita): 100%; % damage, Wheat (Wheat): 10%"
CCOC(=O)OC1=C(c2nc(-c3ccc(Cl)cc3)sc2C)C(=O)CC(C)(C)C1 [Example I-2-c-1],100,90,,100,100,,,100,,,,"Kill rate in % after 7 d [7]: 100%; % damage, Galium (Galium): 80%"
Cc1sc(-c2ccc(Cl)cc2)nc1C1=C(O)C(C)(C)CCC1=O [Example I-2-a-3],,,,,,,,,,,,ED50 value (Pyricularia oryzae): <0.1 ppm; ED50 value (Septoria tritici): <0.1 ppm; ED50 value (Ustilago avenae): 0.1 ppm
Cc1sc(-c2ccc(Cl)cc2)nc1C1=C(O)C(C)(C)CC1=O [Example I-1-a-1],100,100,100,,100,0,100,100,70,100,,"Kill rate in % after 14 d (Meloidogyne incognita): 95%; % damage, Matricaria (Matricaria): 100%"
CCc1sc(-c2ccc(Cl)cc2)nc1C1=C(O)C2(CCCCC2)CC1=O [Example I-1-a-3],100,90,,,100,,,,80,,95,"% damage, Digitaria (Digitaria): 100%; % damage, Avena fatua (Avena fatua [9]): 100%; % damage, Sugar beet (Sugar beet): 0%; % damage, Polygonum (Polygonum): 100%"
CCOC(=O)OC1=C(c2nc(-c3ccc(Cl)cc3)sc2C)C(=O)CC12CCCCC2 [Example I-1-c-2],,,100,,,,,,,100,95,"% damage, Digitaria (Digitaria): 100%; % damage, Oilseed rape (Oilseed rape): 0%; Kill rate in % after 10 d [10]: 95%"
